Data published in patent publication US20060069132A1, “Azolecarboxamide herbicides” (priority 2004, published 2006).

How the values were obtained:
barnyardgrass [1] = experiment: Test B pre-/postemergence herbicide test; format: in vivo, Echinochloa crus-galli; details: for Barnyardgrass plant response rating: postemergence, scale 0 (no effect) to 100 (complete control)
In short: (§1)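 Evaluation is visual, comparing treated with control plants on a scale where 0 means no effect and 100 means full control. Treatments were preemergence, or postemergence on seedlings 2–18 cm tall, and held 13–15 days in the greenhouse.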

Surinam grass = experiment: Test B pre-/postemergence herbicide test; format: in vivo, Urochloa decumbens; details: for Surinam Grass plant response rating: postemergence, scale 0 (no effect) to 100 (complete control)
In short: (§2)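 Flooded paddy rice and barnyardgrass were treated at the 2-leaf stage; upland plantings received compound either on sown seed or on 1- to 4-leaf seedlings. All were kept 13–15 days in a greenhouse and scored visually, 0–100, relative to untreated plants.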

cocklebur = experiment: Test B pre-/postemergence herbicide test; format: in vivo, Xanthium strumarium; details: for Cocklebur plant response rating: postemergence, scale 0 (no effect) to 100 (complete control)
In short: as §1

corn = experiment: Test B pre-/postemergence herbicide test; format: in vivo, Zea mays; details: for Corn plant response rating: postemergence, scale 0 (no effect) to 100 (complete control)
In short: as §2

large crabgrass = experiment: Test B pre-/postemergence herbicide test; format: in vivo, Digitaria sanguinalis; details: for Crabgrass, Large plant response rating: postemergence, scale 0 (no effect) to 100 (complete control)
In short: as §2

giant foxtail = experiment: Test B pre-/postemergence herbicide test; format: in vivo, Setaria faberi; details: for Foxtail, Giant plant response rating: postemergence, scale 0 (no effect) to 100 (complete control)
In short: as §2

lambsquarters = experiment: Test B pre-/postemergence herbicide test; format: in vivo, Chenopodium album; details: for Lambsquarters plant response rating: postemergence, scale 0 (no effect) to 100 (complete control)
In short: as §2

morningglory = experiment: Test B pre-/postemergence herbicide test; format: in vivo, Ipomoea coccinea; details: for Morningglory plant response rating: postemergence, visual rating, scale 0 (no effect) to 100 (complete control)
In short: as §1

pigweed = experiment: Test B pre-/postemergence herbicide test; format: in vivo, Amaranthus retroflexus; details: for Pigweed plant response rating: postemergence, scale 0 (no effect) to 100 (complete control)
In short: as §2

rice [2] = experiment: Test B pre-/postemergence herbicide test; format: in vivo, Oryza sativa; details: 0 = no effect, 100 = complete control, preemergence
In short: as §1

velvetleaf = experiment: Test B pre-/postemergence herbicide test; format: in vivo, Abutilon theophrasti; details: for Velvetleaf plant response rating: postemergence, scale 0 (no effect) to 100 (complete control)
In short: as §2

blackgrass = experiment: Test B postemergence herbicide test; format: in vivo, Alopecurus myosuroides; details: postemergence, visual rating, scale 0 (no effect) to 100 (complete control)
In short: (§3)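 Each value is a visual 0–100 response rating taken against controls 13 to 15 days after treatment in the greenhouse. Plants received formulated chemical postemergence at the 1- to 4-leaf stage or, in flooded paddy, at the 2-leaf stage.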

wheat = experiment: Test B postemergence herbicide test; format: in vivo, Triticum aestivum; parameters: key to Wheat plant response rating: 0 = no effect, 100 = complete control; details: postemergence, visual rating, scale 0 (no effect) to 100 (complete control)
In short: (§4)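 Scale 0–100: zero equals no visible effect, 100 complete control, judged by eye relative to controls. Timing: 13 to 15 days in greenhouse post-treatment. Growth stage at spraying: two leaves (paddy) or one to four leaves, 2–18 cm (postemergence).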

wild oat = experiment: Test B postemergence herbicide test; format: in vivo, Avena fatua; details: postemergence, visual rating, scale 0 (no effect) to 100 (complete control)
In short: as §4

rice [3] = experiment: Test B flooded paddy test; format: in vivo, Oryza sativa; details: 1000 g ai/ha, visual rating, scale 0 to 100 (0 no effect, 100 complete control), 13 to 15 days
In short: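 After treating 2-leaf paddy plants or 2–18 cm postemergence plants (1 to 4 leaves) with formulated chemical, researchers kept them in a greenhouse for 13–15 days. Effects were judged visually versus controls: 0 indicates none, 100 total control.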

[4] = test system: small flower umbrella sedge; experiment: Test B flooded paddy test; format: in vivo, Cyperus difformis; details: 1000 g ai/ha, visual rating, scale 0 to 100 (0 no effect, 100 complete control), 13 to 15 days
In short: as §3

ducksalad [5] = experiment: Test B flooded paddy test; format: in vivo, Heteranthera limosa; details: 1000 g ai/ha, visual rating, scale 0 to 100 (0 no effect, 100 complete control), 13 to 15 days
In short: as §3

barnyardgrass [6] = experiment: Test B flooded paddy test; format: in vivo, Echinochloa crus-galli; details: 1000 g ai/ha, visual rating, scale 0 to 100 (0 no effect, 100 complete control), 13 to 15 days
In short: as §3

rice [7] = experiment: Test C flooded paddy test; format: in vivo, Oryza sativa
In short: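 Plants were grown to the 1- to 4-leaf stage (2–18 cm) and then treated postemergence, or grown to the 2-leaf stage for the flooded paddy test. They were held in a greenhouse for 12 to 14 days and then scored by eye against controls, where 0 is no effect and 100 is complete control.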

[8] = test system: smallflower umbrella sedge; experiment: Test C flooded paddy test; format: in vivo, Cyperus difformis
ducksalad [9] = experiment: Test C flooded paddy test; format: in vivo, Heteranthera limosa
barnyardgrass [10] = experiment: Test C flooded paddy test; format: in vivo, Echinochloa crus-galli
In short: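 Scoring by eye, 12–14 days post-treatment, greenhouse-held plants vs. controls; 0 no effect, 100 complete control. Sprayed at 1–4 leaves (2–18 cm); paddy barnyardgrass at 2 leaves, flooded.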

[11] = 125 g ai/ha, 0 = no effect, 100 = complete control, preemergence
[12] = 500 g ai/ha, visual rating, 0 = no effect, 100 = complete control, preemergence
[13] = 62 g ai/ha, scale 0 to 100 (0 no effect, 100 complete control)
[14] = 125 g ai/ha, scale 0 to 100 (0 no effect, 100 complete control)
[15] = 250 g ai/ha, scale of 0 to 100, 0 is no effect, 100 is complete control
[16] = 500 g ai/ha, visual rating after 12 to 14 days, scale 0 to 100 (0 no effect, 100 complete control)

## CCNC(=O)c1cccc(NC(=O)c2nn(C(C)(C)C)cc2Cl)c1 [Compound 219]
Barnyardgrass [1]; [11]
  Barnyardgrass plant response rating (0 to 100 scale): 0
Barnyardgrass [1]; [12]
  Plant response rating, Barnyardgrass: 20
Barnyardgrass [1]; 125 g ai/ha, visual rating
  Barnyardgrass plant response rating: 0
Barnyardgrass [1]; 500 g ai/ha, visual rating
  Barnyardgrass plant response rating: 0
Surinam grass; [11]
  Surinam Grass plant response rating (0 to 100 scale): 0
Surinam grass; [12]
  Plant response rating, Surinam Grass: 0
Surinam grass; 125 g ai/ha, visual rating
  Surinam Grass plant response rating: 0
Surinam grass; 500 g ai/ha, visual rating
  Surinam Grass plant response rating: 10
cocklebur; [11]
  Cocklebur plant response rating (0 to 100 scale): 0
cocklebur; [12]
  Plant response rating, Cocklebur: 0
cocklebur; 125 g ai/ha, visual rating
  Cocklebur plant response rating: 0
cocklebur; 500 g ai/ha, visual rating
  Cocklebur plant response rating: 20
corn; [11]
  Corn plant response rating (0 to 100 scale): 0
corn; [12]
  Plant response rating, Corn: 0
corn; 125 g ai/ha, visual rating
  Corn plant response rating: 0
corn; 500 g ai/ha, visual rating
  Corn plant response rating: 10
Large crabgrass; [11]
  Crabgrass, Large plant response rating (0 to 100 scale): 0
Large crabgrass; [12]
  Plant response rating, Crabgrass, Large: 100
Large crabgrass; 125 g ai/ha, visual rating
  Crabgrass, Large plant response rating: 0
Large crabgrass; 500 g ai/ha, visual rating
  Crabgrass, Large plant response rating: 10
Giant foxtail; [11]
  Foxtail, Giant plant response rating (0 to 100 scale): 0
Giant foxtail; [12]
  Plant response rating, Foxtail, Giant: 0
Giant foxtail; 125 g ai/ha, visual rating
  Foxtail, Giant plant response rating: 0
Giant foxtail; 500 g ai/ha, visual rating
  Foxtail, Giant plant response rating: 10
lambsquarters; [11]
  Lambsquarters plant response rating (0 to 100 scale): 0
lambsquarters; [12]
  Plant response rating, Lambsquarters: 0
lambsquarters; 125 g ai/ha, visual rating
  Lambsquarters plant response rating: 0
lambsquarters; 500 g ai/ha, visual rating
  Lambsquarters plant response rating: 10
morningglory; [11]
  Morningglory plant response rating (0 to 100 scale): 0
morningglory; 125 g ai/ha
  Morningglory plant response rating: 0
morningglory; 500 g ai/ha
  Morningglory plant response rating: 60
pigweed; [11]
  Pigweed plant response rating (0 to 100 scale): 0
pigweed; [12]
  Plant response rating, Pigweed: 80
pigweed; 125 g ai/ha, visual rating
  Pigweed plant response rating: 10
pigweed; 500 g ai/ha, visual rating
  Pigweed plant response rating: 20
Rice [2]; 125 g ai/ha
  Rice plant response rating (0 to 100 scale): 0
Rice [2]; 500 g ai/ha, visual rating
  Plant response rating, Rice: 0
velvetleaf; [11]
  Velvetleaf plant response rating (0 to 100 scale): 0
velvetleaf; [12]
  Plant response rating, Velvetleaf: 10
velvetleaf; 125 g ai/ha, visual rating
  Velvetleaf plant response rating: 0
velvetleaf; 500 g ai/ha, visual rating
  Velvetleaf plant response rating: 10
blackgrass; 125 g ai/ha
  Blackgrass plant response rating: 0
blackgrass; 500 g ai/ha
  Blackgrass plant response rating: 0
wheat; 125 g ai/ha
  Wheat plant response rating: 0
wheat; 500 g ai/ha
  Wheat plant response rating: 0
Wild oat; 125 g ai/ha
  Oat, Wild plant response rating: 0
Wild oat; 500 g ai/ha
  Oat, Wild plant response rating: 0
Rice [3]
  Rice plant response rating: 0
[4]
  Sedge, Umbrella plant response rating: 80
Ducksalad [5]
  Ducksalad plant response rating: 80
Barnyardgrass [6]
  Barnyardgrass plant response rating: 0
Rice [7]; [13]
  Rice plant response rating: 0
Rice [7]; [14]
  Rice plant response rating: 0
Rice [7]; [15]
  Rice plant response rating: 0
Rice [7]; [16]
  Plant response rating, Rice: 0
[8]; [13]
  Sedge, Umbrella plant response rating: 0
[8]; [14]
  Sedge, Umbrella plant response rating: 0
[8]; [15]
  Sedge, Umbrella plant response rating: 0
[8]; [16]
  Plant response rating, Sedge, Umbrella: 20
Ducksalad [9]; [14]
  Ducksalad plant response rating: 0
Ducksalad [9]; [15]
  Ducksalad plant response rating: 0
Ducksalad [9]; [16]
  Plant response rating, Ducksalad: 0
Barnyardgrass [10]; [13]
  Barnyardgrass plant response rating: 0
Barnyardgrass [10]; [14]
  Barnyardgrass plant response rating: 0
Barnyardgrass [10]; [15]
  Barnyardgrass plant response rating: 0
Barnyardgrass [10]; [16]
  Plant response rating, Barnyardgrass: 0
